According to paper PMC5053523, “In Vitro Antibacterial Activity of Rhodanine Derivatives against Pathogenic Clinical Isolates” (PLoS ONE, 2016):
Converted amounts (≈) assume the structure as drawn. Read-outs that look alike come from different tables or passages of the source.

Columns and labels:
Bacillus Strains = test: Broth microdilution MIC50/MIC90 and MIC range, Bacillus strains panel; type: cell-based, Bacillus spp.; conditions: 10 Bacillus strains
Excerpt: The broth microdilution technique was used, followed by subculturing on agar plates that were rhodanine—free. […] The MICs reported represent the lowest concentration of each compound necessary to inhibit bacterial growth and the MBCs represent the lowest concentration required to reduce the initial bacterial inoculum by ≥ 99.9%.

Mycobacterium smegmatis = test: Broth microdilution MIC/MBC, Mycobacterium smegmatis; type: cell-based; conditions: Mycolicibacterium smegmatis, ATCC14468, M. Smegmatis ATCC 14468
[1] = system: methicillin-resistant Staphylococcus aureus (MRSA); test: Broth microdilution MIC/MBC, MRSA; type: cell-based
Pseudomonas aeruginosa [2] = test: MIC with/without sub-MIC colistin, Pseudomonas aeruginosa; type: cell-based
Summary of the method: (§1)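 Read-out is the MIC, determined with sub-inhibitory colistin or polymixin B nonapeptide co-applied to permeabilize the outer membrane of Gram-negative bacteria.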

[3] = system: Vancomycin Resistant Staphylococcus aureus (VRSA); test: Broth microdilution MIC/MBC, VRSA; type: cell-based; conditions: for MBC / MIC: VRSA
Salmonella Typhimurium = test: MIC with/without PMBN, Salmonella Typhimurium; type: cell-based
Summary of the method: as §1

K. pneumoniae = test: Broth microdilution MIC, K. pneumoniae; type: cell-based
Escherichia coli O157:H7 [4] = test: MIC with/without PMBN, Escherichia coli O157:H7; type: cell-based
Summary of the method: as §1

Pseudomonas aeruginosa [5] = test: MIC with/without PMBN, Pseudomonas aeruginosa; type: cell-based
Summary of the method: as §1

Escherichia coli O157:H7 [6] = test: MIC with/without sub-MIC colistin, Escherichia coli O157:H7; type: cell-based
Summary of the method: as §1

Acinetobacter baumannii = test: MIC with/without sub-MIC colistin, Acinetobacter baumannii; type: cell-based
Summary of the method: as §1

Candida albicans = test: MIC against Candida albicans; type: cell-based; conditions: table prints none, read-out: MIC
Escherichia coli Δ acrAB = test: MIC against E. coli 1411 and AcrAB efflux pump deficient E. coli SM1411Δ acrAB; type: cell-based
Summary of the method: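 Gram-negative MICs were determined for rhodanines alongside control antibiotics, each combined with sub-inhibitory colistin or PMBN. Further testing used the efflux-deficient E. coli SM1411ΔacrAB, missing the AcrAB multidrug pump.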

Clostridium difficile = test: MIC against Clostridium difficile, anaerobic broth dilution; type: cell-based; conditions: Clostridioides difficile
Summary of the method: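 Clinical C. difficile isolates grown anaerobically 48 h at 37 °C, suspended to 0.5 McFarland and diluted 1:300 in pre-reduced supplemented Brain Heart Infusion broth. Compounds serially diluted; plates incubated anaerobically at 37 °C for 48 h. MIC = lowest concentration with no visible growth.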

O=C(O)[C@@H](Cc1ccccc1)N1C(=O)/C(=C/c2cccc(Oc3ccc(F)cc3)c2)SC1=S [Rh 4] showed an MIC50 (Bacillus Strains) of 8 µM (≈ 3.84 µg/mL), an MIC90 (Bacillus Strains) of 16 µM (≈ 7.67 µg/mL) and an MBC (Mycobacterium smegmatis; read-out: MBC) of over 64 µM. For the same compound, the MIC (Mycobacterium smegmatis; read-out: MIC) was 32 µM (≈ 15.3 µg/mL), the MIC50 ([1]; 11 MRSA strains) was 16 µM (≈ 7.67 µg/mL) and the MIC90 ([1]; 11 MRSA strains) was 32 µM (≈ 15.3 µg/mL). It also gave an MBC ([1]; MRSA NRS 1) of 32 µM (≈ 15.3 µg/mL), an MIC ([1]; MRSA NRS 1) of 16 µM (≈ 7.67 µg/mL) and an MBC ([1]; MRSA NRS 19) of 32 µM (≈ 15.3 µg/mL). For the same compound, the MIC ([1]; MRSA NRS 19) was 16 µM (≈ 7.67 µg/mL), the MBC ([1]; MRSA NRS 37) was 32 µM (≈ 15.3 µg/mL) and the MIC ([1]; MRSA NRS 37) was 32 µM (≈ 15.3 µg/mL). The MBC ([1]; MRSA NRS 107) was 32 µM (≈ 15.3 µg/mL), the MIC ([1]; MRSA NRS 107) was 16 µM (≈ 7.67 µg/mL) and the MBC ([1]; MRSA NRS 119) was 32 µM (≈ 15.3 µg/mL). For the same compound, the MIC ([1]; MRSA NRS 119) was 16 µM (≈ 7.67 µg/mL), the MBC ([1]; MRSA NRS 382) was 16 µM (≈ 7.67 µg/mL) and the MIC ([1]; MRSA NRS 382) was 16 µM (≈ 7.67 µg/mL). The MBC ([1]; MRSA NRS 383) was 32 µM (≈ 15.3 µg/mL), the MIC ([1]; MRSA NRS 383) was 32 µM (≈ 15.3 µg/mL) and the MBC ([1]; MRSA NRS 384) was 64 µM (≈ 30.7 µg/mL). The MIC ([1]; MRSA NRS 384) was 16 µM (≈ 7.67 µg/mL), the MBC ([1]; MRSA NRS 385) was 32 µM (≈ 15.3 µg/mL) and the MIC ([1]; MRSA NRS 385) was 16 µM (≈ 7.67 µg/mL). It also gave an MBC ([1]; MRSA NRS 386) of over 64 µM, an MIC ([1]; MRSA NRS 386) of 16 µM (≈ 7.67 µg/mL) and an MBC ([1]; MRSA NRS 387) of 64 µM (≈ 30.7 µg/mL). The MIC ([1]; MRSA NRS 387) was 16 µM (≈ 7.67 µg/mL), the MIC (Pseudomonas aeruginosa [2]; Pseudomonas aeruginosa ATCC 921, colistin (+) […], read-out: MIC) was over 64 µM and the MIC (Pseudomonas aeruginosa [2]; Pseudomonas aeruginosa, ATCC921) was over 128 µM. For the same compound, the MIC50 ([3]; 15 VRSA strains, read-out: MIC 50) was 16 µM (≈ 7.67 µg/mL), the MIC90 ([3]; 15 VRSA strains, read-out: MIC 90) was 16 µM (≈ 7.67 µg/mL) and the MBC ([3]; VRSA 1, read-out: MBC) was 64 µM (≈ 30.7 µg/mL). The MIC ([3]; VRSA 1, read-out: MIC) was 16 µM (≈ 7.67 µg/mL), the MBC ([3]; VRSA 2, read-out: MBC) was 16 µM (≈ 7.67 µg/mL) and the MIC ([3]; VRSA 2, read-out: MIC) was 16 µM (≈ 7.67 µg/mL). It also gave an MBC ([3]; VRSA 3a, read-out: MBC) of 32 µM (≈ 15.3 µg/mL), an MIC ([3]; VRSA 3a, read-out: MIC) of 16 µM (≈ 7.67 µg/mL) and an MBC ([3]; VRSA 3b, read-out: MBC) of 16 µM (≈ 7.67 µg/mL). For the same compound, the MIC ([3]; VRSA 3b, read-out: MIC) was 16 µM (≈ 7.67 µg/mL), the MBC ([3]; VRSA 4, read-out: MBC) was 64 µM (≈ 30.7 µg/mL) and the MIC ([3]; VRSA 4, read-out: MIC) was 16 µM (≈ 7.67 µg/mL). It also gave an MBC ([3]; VRSA 5, read-out: MBC) of 32 µM (≈ 15.3 µg/mL), an MIC ([3]; VRSA 5, read-out: MIC) of 16 µM (≈ 7.67 µg/mL) and an MBC ([3]; VRSA 6, read-out: MBC) of 32 µM (≈ 15.3 µg/mL). It also gave an MIC ([3]; VRSA 6, read-out: MIC) of 16 µM (≈ 7.67 µg/mL), an MBC ([3]; VRSA 7, read-out: MBC) of 32 µM (≈ 15.3 µg/mL) and an MIC ([3]; VRSA 7, read-out: MIC) of 16 µM (≈ 7.67 µg/mL). It also gave an MBC ([3]; VRSA 8, read-out: MBC) of 32 µM (≈ 15.3 µg/mL), an MIC ([3]; VRSA 8, read-out: MIC) of 16 µM (≈ 7.67 µg/mL) and an MBC ([3]; VRSA 9, read-out: MBC) of 32 µM (≈ 15.3 µg/mL). For the same compound, the MIC ([3]; VRSA 9, read-out: MIC) was 32 µM (≈ 15.3 µg/mL), the MBC ([3]; VRSA 10, read-out: MBC) was 32 µM (≈ 15.3 µg/mL) and the MIC ([3]; VRSA 10, read-out: MIC) was 16 µM (≈ 7.67 µg/mL). For the same compound, the MBC ([3]; VRSA 11a, read-out: MBC) was 64 µM (≈ 30.7 µg/mL), the MIC ([3]; VRSA 11a, read-out: MIC) was 16 µM (≈ 7.67 µg/mL) and the MBC ([3]; VRSA 11b, read-out: MBC) was 64 µM (≈ 30.7 µg/mL). For the same compound, the MIC ([3]; VRSA 11b, read-out: MIC) was 16 µM (≈ 7.67 µg/mL), the MBC ([3]; VRSA 12, read-out: MBC) was 64 µM (≈ 30.7 µg/mL) and the MIC ([3]; VRSA 12, read-out: MIC) was 16 µM (≈ 7.67 µg/mL). It also gave an MBC ([3]; VRSA 13, read-out: MBC) of 64 µM (≈ 30.7 µg/mL), an MIC ([3]; VRSA 13, read-out: MIC) of 16 µM (≈ 7.67 µg/mL) and an MIC (Salmonella Typhimurium; Salmonella Typhimurium ATCC 700720, PMBN (+) 4 μg/mL, read-out: MIC) of over 128 µM. The MIC (Salmonella Typhimurium; Salmonella enterica, ATCC 700720 / TYPHIMURIUM) was over 128 µM, the MIC (K. pneumoniae; K. pneumoniae NR-15417) was over 128 µM and the MIC (K. pneumoniae; Klebsiella pneumoniae) was over 128 µM. For the same compound, the MIC (Escherichia coli O157:H7 [4]; Escherichia coli O157:H7 ATCC 35150, PMBN (+) 4 μg/mL, read-out: MIC) was 8 µM (≈ 3.84 µg/mL), the MIC (Escherichia coli O157:H7 [4]; Escherichia coli O157:H7 ATCC 700728, PMBN (+) 4 μg/mL, read-out: MIC) was over 64 µM and the MIC (Escherichia coli O157:H7 [4]; Escherichia coli, ATCC35150) was over 256 µM. For the same compound, the MIC (Escherichia coli O157:H7 [4]; Escherichia coli, ATCC700728) was over 128 µM, the MIC (Pseudomonas aeruginosa [5]; Pseudomonas aeruginosa ATCC 9721, PMBN (+) 4 μg/mL, read-out: MIC) was over 64 µM and the MIC (Pseudomonas aeruginosa [5]; Pseudomonas aeruginosa, ATCC9721) was over 128 µM. For the same compound, the MIC (Escherichia coli O157:H7 [6]; Escherichia coli O157:H7 ATCC 35150, colistin (+) […], read-out: MIC) was over 64 µM, the MIC (Escherichia coli O157:H7 [6]; Escherichia coli O157:H7 ATCC 700728, colistin (+) […], read-out: MIC) was over 64 µM and the MIC (Escherichia coli O157:H7 [6]; Escherichia coli, ATCC35150) was over 128 µM. It also gave an MIC (Escherichia coli O157:H7 [6]; Escherichia coli, ATCC700728) of over 128 µM, an MIC (Acinetobacter baumannii; Acinetobacter baumannii ATCC BAA747, colistin (+) […], read-out: MIC) of over 64 µM and an MIC (Acinetobacter baumannii; Acinetobacter baumannii ATCC BAA19606, colistin (+) […], read-out: MIC) of over 64 µM. For the same compound, the MIC (Acinetobacter baumannii; Acinetobacter baumannii, ATCCBAA747) was over 128 µM, the MIC (Acinetobacter baumannii; Acinetobacter baumannii, ATCCBAA19606) was over 128 µM and the MIC (Candida albicans; ATCC10231, C. albicans ATCC 10231, unit from abstract) was over 64 µM. For the same compound, the MIC (Candida albicans; C. albicans NR 29434, unit from abstract) was over 64 µM, the MIC (Candida albicans; C. albicans NR 29435, unit from abstract) was over 64 µM and the MIC (Candida albicans; C. albicans NR29437, unit from abstract) was over 64 µM. The MIC (Candida albicans; C. albicans NR29438, unit from abstract) was over 64 µM, the MIC (Candida albicans; C. albicans NR 29446, unit from abstract) was 64 µM (≈ 30.7 µg/mL) and the MIC (Candida albicans; C. albicans NR 29448, unit from abstract) was over 64 µM. It also gave an MIC (Candida albicans; C. albicans NR 29449, unit from abstract) of over 64 µM, an MIC (Candida albicans; C. albicans NR 29453, unit from abstract) of over 64 µM and an MIC (Candida albicans; C. albicans NR 294436, unit from abstract) of over 64 µM. The MIC (Escherichia coli Δ acrAB; E.coli 1411) was over 64 µM, the MIC (Escherichia coli Δ acrAB; E.coli 1411 SM (Δ acrAB, AcrAB efflux pump deficient)) was over 64 µM and the MIC (Clostridium difficile; C. difficile HM-88) was 4 µM (≈ 1.92 µg/mL). The MIC (Clostridium difficile; C. difficile HM-745) was 2 µM (≈ 0.959 µg/mL), the MIC (Clostridium difficile; C. difficile HM-746) was 2 µM (≈ 0.959 µg/mL) and the MIC (Clostridium difficile; C. difficile Isolate-1 NR-13427) was 2 µM (≈ 0.959 µg/mL). It also gave an MIC (Clostridium difficile; C. difficile Toxigenic Strain P8 NR-32888) of 4 µM (≈ 1.92 µg/mL).
